Legend:
[1] = tested on: macrophages; assay: zebrafish tail fin wounding assay, macrophage migration to wounded site; format: in vivo, zebrafish (Danio rerio); conditions: Example 3, ginsenoside Re
Experimental: (§1) Zebrafish (Danio rerio) were maintained and handled according to the guidelines from the Zebrafish Model Organism Database (http://zfin.org) and in compliance with the directives of the local animal welfare committee of Leiden University. Zebrafish were exposed to a 14 h light and 10 h dark cycle to maintain circadian rhythmicity. Fertilization was performed by natural spawning at the beginning of the light period. […] The following zebrafish lines were used in this study: the double transgenic line Tg(mpx:GFP^i114/mpeg1:mCherry^umsF001), in which neutrophils and macrophages are fluorescently labeled (green and red, respectively), and the Tg(9xGCRE-HSV.UI23:EGFP)^ia20 reporter line, in which the gene encoding enhanced green fluorescent protein (EGFP) is driven by a GRE-containing promoter.
(§2) For the tail fin wounding experiments, 20 larvae at 2 or 3 days post-fertilization (dpf) were utilized for each experimental group. For wounding, larvae were anesthetized in egg water containing 0.02% buffered aminobenzoic acid ethyl ester (tricaine; Sigma-Aldrich). Larvae were placed on Petri dishes coated with 2% agarose under a Leica M165C stereomicroscope (Leica Microsystems, Wetzlar, Germany), and the tails were partly amputated using a 1-mm sapphire blade (World Precision Instruments, Sarasota, FL, USA). For quantification of leukocyte migration, larvae were fixed overnight in 4% paraformaldehyde (PFA) at 4° C. The next day, fixed larvae were washed with Phosphate Buffered Saline (PBS) containing 0.1% Tween 20, and stored at 4° C. until imaging.
(§3) The macrophages were detected based on their red (mCherry) fluorescence, and neutrophils based on their green (EGFP) fluorescence. To quantify the number of macrophages and neutrophils recruited to the wounded area, the cells in a defined area of the tail were determined by blinded manual counting.
(§4) Zebrafish (Danio rerio) were maintained and handled according to the guidelines from the Zebrafish Model Organism Database (http://zfin.org) and in compliance with the directives of the local animal welfare committee of Leiden University. Zebrafish were exposed to a 14 h light and 10 h dark cycle to maintain circadian rhythmicity. Fertilization was performed by natural spawning at the beginning of the light period. […] The following zebrafish lines were used in this study: AB/TL wild type, the transgenic lines Tg(mpx:GFP^i114/mpeg1:mCherry^umsF001)[14, 15], and Tg(9xGCRE-HSV.UI23:EGFPia^20)[16], and the mutant lines grs357[20].
(§5) For the tail fin wounding experiments, 2- or 3-days post-fertilization (dpf) larvae were anesthetized in egg water containing 0.02% buffered aminobenzoic acid ethyl ester (tricaine; Sigma-Aldrich). Larvae were placed in Petri dishes coated with 2% agarose under a Leica M165C stereomicroscope (Leica Microsystems, Wetzlar, Germany), and the tails were partly amputated using a 1-mm sapphire blade (World Precision Instruments, Sarasota, FL, USA).
(§6) In experiments in which the leukocyte migration was used as a readout, larvae were subjected to treatment with chemicals as indicated, starting at 2 h before the amputation (pretreatment), and treatment was continued for 4 h after the tail fin amputation (20 larvae per group, unless indicated otherwise). In some experiments, a 24 h treatment with MZ31 (10 μM) was started at 2 dpf, and these treatments were continued during the pretreatment and treatment with the other chemicals. At 4 h after amputation, the larvae were fixed in 4% paraformaldehyde (PFA) overnight at 4° C. The next day, fixed larvae were washed with Phosphate Buffered Saline (PBS) containing 0.1% Tween 20 and stored at 4° C. until imaging. […] The macrophages were detected based on red (mCherry) fluorescence and neutrophils on their green (EGFP) fluorescence. To quantify the number of macrophages and neutrophils recruited to the wounded area, the cells in a defined area of the tail were determined by blinded manual counting. […]

[2] = micelle formation from dried film dissolved in H2O; appearance of solution; format: physicochemical
Experimental: Dried leaves of the plant Panax ginseng (8 gram) were boiled in water (350 mL), filtrated and loaded on a 20 mL Bed Volume (BV) column filled with macroporous resin (type D101). After extensively washing with water (15 BV's) the ginsenosides were eluted with 60% EtOH. The ginsenoside solution was decolorized by passing through a 20 mL BV column filled with type D941 macroporous resin. Subsequently, the solvents were slowly evaporated, after at 80° C. under reduced pressure (375 hPa) using a glass vials and a evaporator (P12-Multivapor, Buchi). After evaporation of both the ethanol and the water, a transparent film was formed on the wall of the glass vial.
In parallel 100 mg pure Re was solved in 10 mL of ethanol. […] The ethanol was slowly removed at 80° C. under low pressure (375 hPa) using a glass vials and a evaporator (P12-Multivapor). Again a clear film was formed on the wall of the glass tubes.
Micelle formation of ginsenoside extract obtained from dried leaves as described above was repeated in the presence of 0.6 mg of dexamethasone. Dexamethasone was first dissolved in ethanol in a concentration of 10 mg/mL and 0.6 mg of dexamethasone was added to the ethanolic ginsenoside fraction obtained after purification and decolorization by D101 and D941 resins respectively, using the method described herein above. The content of Re and Rg1 in this ethanolic ginsenoside fraction was 4 mg/10 mL as determined by HPLC (see below). The molecular ratio between dexamethasone and Re/Rel in this solution was around 5:70. The ethanol fraction was slowly removed at 80° C. under reduced pressure (375 hPa) using a glass vials and a evaporator to obtain a film. […] The content and the presence of micelles were assessed by size exclusion chromatography as described below.

[3] = tested on: neutrophils; assay: zebrafish tail fin wounding assay, neutrophil migration to wounded site; format: in vivo, zebrafish (Danio rerio)
Experimental: as §1, §2, §3, §4, §5, §6

[4] = tested on: zebrafish larvae; assay: tail fin regeneration assay
[5] = tested on: zebrafish larvae; assay: whole-body cortisol measurement of zebrafish larvae (ELISA); conditions: Example 3, ginsenoside Re
[6] = tested on: zebrafish larvae; assay: whole-body glucose measurement of zebrafish larvae; conditions: Example 3, ginsenoside Re
[7] = size exclusion chromatography of micelles (Sephadex G50) with HPLC; format: physicochemical
Experimental: The size and content of the micelles were determined by means of size exclusion chromatography. 1 mL of aqueous ginsenoside/dexamethasone solution was loaded on a Sephadex G50 size exclusion column (size 25×1 cm) and eluted under gravity with water. Blue dextran (MW=2.000.000 Da) and erythrosine (880 Da) were used as molecular weight markers. Fractions of 2.0 mL were collected. The fractions were dried and dissolved in 70% methanol and the ginsenoside content was analyzed by means of HPLC. HPLC conditions were: • HPLC equipment: HPLC/DAD Aligent 1200 series, a quaternary pump connected to a DAD and autosampler. • Stationary phase: Kinetex 2.6 μm, C18 100 Å, 100×4.6 mm-Phenomenex, USA • Mobile phase: • A: 0.03% o-phosphoric acid (H3PO4) in Ultrapure H2O • B: 0.03% o-phosphoric acid (H3PO4) in Acetonitrile (LiChrosolv, Millipore-Merck, Darmstadt, Germany; quality far UV) • Gradient:
• Conditions • Flow: 0.8 ml/min • Injection volume: 20 μL • Column temperature: 35° C. • Detection wavelength: 203 and 241 nm

[8] = rule of thumb, literature table; cited from earlier work
[9] = tested on: gr; assay: Gr transactivation activity in Tg(9xGCRE-HSV.UI23:EGFP)ia20 reporter larvae; format: in vivo, zebrafish (Danio rerio); conditions: 24 h from 2 dpf; 10 μM GC, 50 μM Rg1 or combination
Experimental: (§7) To investigate the Gr transactivation activity in zebrafish larvae, the Tg(9xGCRE-HSV.UI23:EGFP)^ia20 reporter line was used, which expresses enhanced green fluorescent protein (EGFP) under the control of a promoter containing an array of nine GREs. […] The integrated intensity of the EGFP signal in the larvae was determined using ImageJ software.
as §7, with “Tg(9xGCRE-HSV.UI23:EGFP^ia20)” for “Tg(9xGCRE-HSV.UI23:EGFP)^ia20”

SMILES	migration of macrophages [1]	appearance of solution in ethanol ([2]; 100 mg in 10 mL of ethanol)	appearance of solution in H2O after dissolving the film ([2]; film from ethanol (or 60% EtOH) evaporation, dissolved in H2O)	micelle formation / crystallization in H2O ([2]; microscopic determination, 10 mL H2O)	migration of neutrophils to the wounded tail area ([3]; Example 3, ginsenoside Re)	regenerative tissue ([4]; Example 3, ginsenoside Re)	whole body cortisol [5]	whole body glucose [6]	detection of free dexamethasone in fractions after 55 mL [7]	co-elution of dexamethasone with micelles / encapsulation ([7]; Sephadex G50 fractions)	dose equivalent to a 5 mg prednisone dose [8]	relative EGFP intensity (Gr transactivation) [9]	neutrophil migration to the wounded site ([3]; 10 μM dexamethasone)	regeneration of amputated tail fin (length of regenerated tissue at 5 dpf) ([4]; 0-5 dpf, 10 μM beclomethasone or dexamethasone, 50 μM Rg1 or combinations, amputation at 2 dpf)
CC(C)=CCC[C@](C)(O[C@@H]1O[C@H](CO)[C@@H](O)[C@H](O)[C@H]1O)[C@H]1CC[C@]2(C)[C@@H]1[C@H](O)C[C@@H]1[C@@]3(C)CC[C@H](O)C(C)(C)[C@@H]3[C@@H](O[C@@H]3O[C@H](CO)[C@@H](O)[C@H](O)[C@H]3O[C@@H]3O[C@@H](C)[C@H](O)[C@@H](O)[C@H]3O)C[C@]12C [Re, (3β, 6α, 12β)-20-(β-D-Glucopyranosyloxy)-3, 12-dihydroxydammar-24-en-6-yl 2-O-(6-deoxy-α-L-mannopyranosyl)-β-D-glucopyranoside]	did not inhibit the migration of macrophages	clear solution	cloudy solution	crystallization of Re (FIG. 12B) and no micelles were obtained	inhibited the migration of neutrophils to the wounded tail area	did not affect regenerative tissue	no side effects could be observed	no side effects could be observed	–	–	–	–	–	–
C[C@@H]1C[C@H]2[C@@H]3CCC4=CC(=O)C=C[C@]4(C)[C@@]3(F)[C@@H](O)C[C@]2(C)[C@@]1(O)C(=O)CO [dexamethasone, reference compound]	–	–	–	–	–	–	–	–	could not be detected in these fractions	co-eluted with the Re and Rg1 containing micelles	about 0.75 mg	significantly increased the relative EGFP intensity	did not affect neutrophil migration	dexamethasone-induced inhibition of the regenerative process
